The target in experiment [1] is T1, Coagulation factor X (Homo sapiens, UniProt P00742). The experiment in a line: Inhibitory concentration against Coagulation factor Xa.
For experiment [2], the target named is T2, Coagulation factor VII (Homo sapiens, UniProt P08709).
T2 sequence (P08709 whole entry): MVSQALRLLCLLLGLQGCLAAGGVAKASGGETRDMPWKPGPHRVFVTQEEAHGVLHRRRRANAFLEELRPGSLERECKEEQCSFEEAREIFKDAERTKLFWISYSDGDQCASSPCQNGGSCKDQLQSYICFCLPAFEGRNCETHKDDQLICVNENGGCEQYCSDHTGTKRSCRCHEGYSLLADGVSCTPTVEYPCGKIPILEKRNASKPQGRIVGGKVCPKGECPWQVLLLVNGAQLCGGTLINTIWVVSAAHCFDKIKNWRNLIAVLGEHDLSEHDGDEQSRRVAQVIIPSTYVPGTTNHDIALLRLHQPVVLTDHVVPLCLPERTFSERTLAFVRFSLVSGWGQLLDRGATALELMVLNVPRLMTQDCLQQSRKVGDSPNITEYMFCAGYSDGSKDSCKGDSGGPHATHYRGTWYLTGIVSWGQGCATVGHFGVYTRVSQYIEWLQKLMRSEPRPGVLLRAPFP
Kind of experiment: Inhibitory concentration against coagulation factor VIIa.

Experiment [3] deals with T3, Plasminogen (Rattus norvegicus, UniProt Q01177). Kind of experiment: Inhibitory concentration against plasmin.
T3 sequence (Q01177 97-581 limits assumed): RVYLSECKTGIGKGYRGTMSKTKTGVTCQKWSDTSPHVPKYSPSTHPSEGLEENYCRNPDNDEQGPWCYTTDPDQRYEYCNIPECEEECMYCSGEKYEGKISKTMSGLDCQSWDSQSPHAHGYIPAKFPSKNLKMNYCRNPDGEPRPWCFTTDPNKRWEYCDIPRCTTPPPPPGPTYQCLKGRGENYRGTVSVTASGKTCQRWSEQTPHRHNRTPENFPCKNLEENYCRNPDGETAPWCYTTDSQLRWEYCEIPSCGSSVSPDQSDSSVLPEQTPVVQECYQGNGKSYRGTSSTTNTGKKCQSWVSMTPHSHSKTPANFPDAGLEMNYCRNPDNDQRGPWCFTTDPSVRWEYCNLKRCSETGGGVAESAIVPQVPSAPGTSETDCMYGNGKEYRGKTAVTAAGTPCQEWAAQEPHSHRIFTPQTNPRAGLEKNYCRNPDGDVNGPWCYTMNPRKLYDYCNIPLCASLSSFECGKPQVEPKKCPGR
T3 sequence (Q01177 582-812 limits assumed): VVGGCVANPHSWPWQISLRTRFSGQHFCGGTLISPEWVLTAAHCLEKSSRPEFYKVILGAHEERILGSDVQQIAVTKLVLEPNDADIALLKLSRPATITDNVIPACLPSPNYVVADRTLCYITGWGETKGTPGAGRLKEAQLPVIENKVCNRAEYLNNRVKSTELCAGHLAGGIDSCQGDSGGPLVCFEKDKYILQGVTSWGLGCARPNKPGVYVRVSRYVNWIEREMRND
The target in experiment [4] is T4, Prothrombin (Homo sapiens, UniProt P00734). The experiment in a line: Inhibitory concentration against thrombin.
The target of experiment [5] is T5, Tissue-type plasminogen activator (Homo sapiens, UniProt P00750). The experiment in a line: Compound was evaluated for the inhibition of Tissue type plasminogen activator (tissue plasminogen activator).
T5 sequence (P00750 whole entry): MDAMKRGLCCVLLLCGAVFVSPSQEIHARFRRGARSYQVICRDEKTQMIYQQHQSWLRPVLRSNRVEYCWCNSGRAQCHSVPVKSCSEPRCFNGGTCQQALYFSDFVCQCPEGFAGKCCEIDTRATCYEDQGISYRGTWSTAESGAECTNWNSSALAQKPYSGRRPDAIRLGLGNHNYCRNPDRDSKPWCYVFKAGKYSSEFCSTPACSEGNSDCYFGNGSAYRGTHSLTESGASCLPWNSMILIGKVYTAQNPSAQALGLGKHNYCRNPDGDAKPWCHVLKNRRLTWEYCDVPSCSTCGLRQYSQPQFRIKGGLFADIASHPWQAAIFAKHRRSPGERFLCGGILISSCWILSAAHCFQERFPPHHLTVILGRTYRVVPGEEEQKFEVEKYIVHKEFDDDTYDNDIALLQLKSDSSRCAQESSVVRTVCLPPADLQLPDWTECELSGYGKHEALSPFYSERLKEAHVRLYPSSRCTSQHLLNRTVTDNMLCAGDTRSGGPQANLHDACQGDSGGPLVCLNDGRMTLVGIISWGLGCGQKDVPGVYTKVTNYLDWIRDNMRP
Experiment [6] concerns the target Urokinase-type plasminogen activator (Homo sapiens, UniProt P00749). The experiment in a line: Inhibitory concentration against Urokinase-type plasminogen activator.
For experiment [7], the target named is T4, Prothrombin.
Description: Inhibitory constant on rate against thrombin.
In experiment [8] the target is T5, Tissue-type plasminogen activator. The experiment in a line: Inhibitory concentration against Tissue type plasminogen activator.
A further experiment deals with T6, Serine protease 1 (Bos taurus, UniProt P00760).
T6 sequence (P00760 whole entry): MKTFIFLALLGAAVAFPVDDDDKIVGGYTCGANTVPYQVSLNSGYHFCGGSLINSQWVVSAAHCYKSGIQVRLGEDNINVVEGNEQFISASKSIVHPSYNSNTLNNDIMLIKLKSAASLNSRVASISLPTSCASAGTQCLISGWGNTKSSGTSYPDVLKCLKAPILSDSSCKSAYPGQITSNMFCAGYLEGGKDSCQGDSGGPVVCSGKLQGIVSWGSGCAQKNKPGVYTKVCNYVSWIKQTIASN
The experiment in a line: Inhibitory concentration against trypsin.

Experiment [9] concerns the target T3, Plasminogen. The experiment in a line: Inhibition constant against plasmin.
Experiment [10] concerns the target T1, Coagulation factor X. Kind of experiment: Inhibition constant against Coagulation factor Xa.
In experiment [11] the target is T2, Coagulation factor VII. The experiment in a line: Inhibition constant against coagulation factor VIIa.

The term IC50 denotes the concentration that gives 50% inhibition. A high value points to a need for much substance. For orientation: Ki means the dissociation constant of the complex between target and ligand, obtained from inhibition or displacement. Higher therefore signals a looser hold on the target.

Each structure is given as a SMILES string.

T1 sequence (P00742 41-179 limits assumed): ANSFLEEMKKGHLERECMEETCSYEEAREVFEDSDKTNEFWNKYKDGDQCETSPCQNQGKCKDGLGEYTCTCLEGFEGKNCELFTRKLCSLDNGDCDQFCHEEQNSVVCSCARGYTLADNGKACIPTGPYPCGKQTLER
T1 sequence (P00742 235-488 limits assumed): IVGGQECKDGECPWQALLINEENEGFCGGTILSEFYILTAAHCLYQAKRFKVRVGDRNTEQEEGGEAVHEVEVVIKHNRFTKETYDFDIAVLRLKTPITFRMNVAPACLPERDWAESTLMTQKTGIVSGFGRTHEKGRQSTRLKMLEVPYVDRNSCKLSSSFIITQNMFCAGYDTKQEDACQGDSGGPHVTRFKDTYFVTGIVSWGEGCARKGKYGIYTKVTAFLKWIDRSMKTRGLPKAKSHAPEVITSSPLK

Regarding `NC(N)=NCCC[C@@H](CCl)NC(=O)[C@@H]1CCCN1C(=O)[C@H](N)Cc1ccccc1`, the IC50 on Coagulation factor X [1] amounted to 165 nM; on Coagulation factor VII [2] it was 200 nM; on Plasminogen [3], 699 nM; against Prothrombin [4], 1.5 nM; in experiment [5] it was 106 nM; in experiment [6], 508 nM.

For `N=C(N)NCCC[C@H](NC(=O)[C@@H]1CCN2CC[C@@](N)(Cc3ccccc3)CN12)C(=O)c1nccs1`, the affinity at Prothrombin [4], expressed as Ki, was 2.4 nM. The k on on Prothrombin [7] was greater than 1e+07 M⁻¹ s⁻¹.

As for `N=C(N)NCCC[C@H](NC(=O)[C@@H]1CCN2CC[C@@](N)(Cc3ccccc3)CN12)C(=O)C(=O)NCCc1ccc(Cl)cc1`, the inhibitory constant (Ki) at Prothrombin [4] amounted to 0.31 nM. Moreover, the k on on Prothrombin [7] came out at 380000 M⁻¹ s⁻¹.

As to `N=C(N)NCCC[C@H](NC(=O)[C@@H]1CCC2CC[C@@](N)(Cc3ccccc3)CN21)C(=O)c1nc2ccccc2s1` (stereo in doubt; form 2) [listing 1 of 2 here], the k on at Prothrombin [7] was greater than 1e+07 M⁻¹ s⁻¹.

`N=C(N)NCCC[C@@H](CCl)NC(=O)[C@@H]1CCN2CC[C@@](N)(Cc3ccccc3)CN12`: the IC50 came out at 385 nM against Coagulation factor X [1]; 140 nM on Coagulation factor VII [2]; 978 nM against Plasminogen [3]; 1.2 nM at Prothrombin [4]; 632 nM in experiment [8]; 927 nM in [6]. Further, the k on on Prothrombin [7] worked out at 2.4e+06 M⁻¹ s⁻¹.

Consider `N=C(N)NCCC[C@H](NC(=O)[C@@H]1CCN2CC[C@@](N)(Cc3ccccc3)CN12)C(=O)c1nc2ccccc2s1`, for which the Ki in experiment [8] is 495 nM; at Serine protease 1 it was 0.64 nM; in [6], 600 nM; on Plasminogen [9] it was 415 nM; on Coagulation factor X [10], 270 nM; at Coagulation factor VII [11] it was 270 nM. The compound further came in with a k on at Prothrombin [7] greater than 1e+07 M⁻¹ s⁻¹.

At Prothrombin [7], `N=C(N)NCCC[C@H](NC(=O)[C@@H]1CCC2CC[C@@](N)(Cc3ccccc3)CN21)C(=O)c1nc2ccccc2s1` (stereo in doubt; form 1) [listing 1 of 2 here] came in with a k on greater than 1e+07 M⁻¹ s⁻¹.

As to `N=C(N)NCCC[C@H](NC(=O)[C@@H]1CCC2CC[C@@](N)(Cc3ccccc3)CN21)C(=O)c1nc2ccccc2s1` (stereo in doubt; form 1) [listing 2 of 2 here], at Prothrombin [4], the affinity, expressed as Ki, was 10 nM. In other words, the double-digit nanomolar range.

Regarding `N=C(N)NCCC[C@H](NC(=O)[C@@H]1CCC2CC[C@@](N)(Cc3ccccc3)CN21)C(=O)c1nc2ccccc2s1` (stereo in doubt; form 2) [listing 2 of 2 here], the inhibitory constant (Ki) at Prothrombin [4] is 0.85 nM; in [8] it was 93 nM; at Serine protease 1, 0.23 nM; in [6] it was 335 nM; on Plasminogen [9] it was 251 nM; at Coagulation factor X [10], 19.3 nM. Further, on Coagulation factor VII [11], the affinity, expressed as Ki, was 200 nM.

At Prothrombin [7], `N=C(N)NCCC[C@H](NC(=O)[C@@H]1CCN2CC[C@@](N)(Cc3ccccc3)CN12)C(=O)C(=O)NCc1ccccc1` showed a k on of 880000 M⁻¹ s⁻¹.

At Prothrombin [7], `COc1ccc(CCNC(=O)C(=O)[C@H](CCCN=C(N)N)NC(=O)[C@@H]2CCN3CC[C@@](N)(Cc4ccccc4)CN23)cc1` had a k on of 250000 M⁻¹ s⁻¹.

Regarding `NCCCC[C@H](NC(=O)[C@@H]1CCN2CC[C@@](N)(Cc3ccccc3)CN12)C(=O)C(=O)NCc1ccccc1`, affinity on Prothrombin [4] was put at a Ki of 2000 nM.

For the compound `COc1ccc(CCNC(=O)C(=O)[C@H](CCCNC(=N)N)NC(=O)[C@@H]2CCN3CC[C@@](N)(Cc4ccccc4)CN23)cc1`, on Prothrombin [4], affinity was put at a Ki of 0.45 nM.

Regarding `N=C(N)NCCC[C@H](NC(=O)[C@@H]1CCN2CC[C@@](N)(Cc3ccccc3)CN12)C(=O)C(=O)NCCc1ccccc1`, the Ki at Prothrombin [4] stood at 0.071 nM; on Serine protease 1 it was 0.027 nM. The k on on Prothrombin [7] amounted to 640000 M⁻¹ s⁻¹.

Source of the values: ChEMBL document CHEMBL1132633, “Secondary structure peptide mimetics: design, synthesis, and evaluation of beta-strand mimetic thrombin inhibitors” (J Med Chem, 1999).
